The values below come from patent US8541427B2, “Phenyl-substituted 2-imino-3-methyl pyrrolo pyrimidinone compounds as BACE-1 inhibitors, compositions, and their use” (Merck, Sharp & Dohme, Corp., priority 2008, dated 2013).

Broadly, the Ki is the dissociation constant of the complex between target and ligand, obtained from inhibition or displacement. One may read the IC50 as the midpoint of a concentration-inhibition curve.

Like-named read-outs stand apart in the source and are kept apart here.

The target of data set [1] is soluble human BACE1 catalytic domain (Homo sapiens (Human), UniProt P56817). In words: BACE1 HTRF FRET Assay.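 Also: cleavage of a quenched APP Swedish mutant peptide (QSY7 quencher, Europium donor) measured as rise in 620 nm fluorescence after 1.5 h at 30 °C, inhibition suppresses signal.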 It is filed as biochemical. The following applies: Ki calculated from IC50 with Cheng-Prusoff equation.
In data set [2] the target is BACE1 (Aβ40 in HEK293-APPswe/lon cells) (Homo sapiens (Human), UniProt P56817). The data set can be described thus: BACE Inhibitor Whole Cell IC50 Determination Using HEK293-APPswe/lon Cells (Aβ40). It counts as cell-based. The following applies: 4 hours.
Another data set addresses human liver Cathepsin D (Homo sapiens (Human), UniProt P07339). In words: Human Cathepsin D FRET Assay. The following applies: selectivity with respect to Cathepsin D vs BACE1. It is filed as biochemical.
For a further data set, the target named is CYP2D6 (Homo sapiens (Human), UniProt P10635). The data set can be described thus: CYP Inhibition Assay, CYP2D6. The following applies: human liver microsomes. It counts as in vitro ADME. (In general: Microsomes from liver hold many membrane-bound enzymes, among them those of drug oxidation.)
A further data set deals with CYP3A4 (Homo sapiens (Human), UniProt P08684). The data set can be described thus: CYP Inhibition Assay, CYP3A4.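 Also: CYP probe substrate held near its Km, inhibition judged from metabolite formation quantified by LC-MS/MS against a standard curve.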 It is filed as in vitro ADME. The following applies: human liver microsomes.
A further data set deals with CYP2C9 (Homo sapiens (Human), UniProt P11712). In words: CYP Inhibition Assay, CYP2C9.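 Also: probe substrate held close to its Km, with metabolite formation quantified by LC-MS/MS against a calibration curve.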 It is filed as in vitro ADME. The following applies: human liver microsomes.
Another data set has as its target hERG (Homo sapiens (Human), UniProt Q12809). In words: hERG screening, IonWorks Quattro (hERG L929 cells). It counts as cell-based. The following applies: L929 cells expressing hERG; for inhibition at 5 min, 1 uM: read-out: HERG Ionworks % Inhib 1 uM; for inhibition at 5 min, 10 uM: read-out: HERG Ionworks % Inhib 10 uM. (In general: Block of hERG is tested as a sign of cardiac risk.)

[3] abbreviates: 30 min pre-incubation with NADPH, read-out: CYP 2D6 IC50 pre.
Setting [4] is: co-incubation, read-out: CYP 2D6 IC50 co.
Setting [5] is: 30 min pre-incubation with NADPH, read-out: CYP 3A4 IC50 pre.
Where [6] appears, read: co-incubation, read-out: CYP 3A4 IC50 co.
[7] abbreviates: 30 min pre-incubation with NADPH, read-out: CYP 2C9 IC50 pre.
[8] abbreviates: co-incubation, read-out: CYP 2C9 IC50 co.

Sequence of CYP2C9 (P11712 whole entry): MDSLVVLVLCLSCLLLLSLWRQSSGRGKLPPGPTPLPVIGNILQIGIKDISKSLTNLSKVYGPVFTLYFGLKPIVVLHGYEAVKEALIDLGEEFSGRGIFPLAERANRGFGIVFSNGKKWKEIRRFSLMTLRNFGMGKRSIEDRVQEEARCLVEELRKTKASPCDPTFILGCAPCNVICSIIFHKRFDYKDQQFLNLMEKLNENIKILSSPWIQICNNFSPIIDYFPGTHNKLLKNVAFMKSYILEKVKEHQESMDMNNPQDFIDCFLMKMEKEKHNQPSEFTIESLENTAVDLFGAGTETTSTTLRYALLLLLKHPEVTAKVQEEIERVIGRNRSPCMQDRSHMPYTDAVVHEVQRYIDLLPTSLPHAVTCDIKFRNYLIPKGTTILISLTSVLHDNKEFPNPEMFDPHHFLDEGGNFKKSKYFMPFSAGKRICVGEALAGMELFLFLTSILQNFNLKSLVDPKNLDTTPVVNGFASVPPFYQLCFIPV
Sequence of soluble human BACE1 catalytic domain (P56817 75-416): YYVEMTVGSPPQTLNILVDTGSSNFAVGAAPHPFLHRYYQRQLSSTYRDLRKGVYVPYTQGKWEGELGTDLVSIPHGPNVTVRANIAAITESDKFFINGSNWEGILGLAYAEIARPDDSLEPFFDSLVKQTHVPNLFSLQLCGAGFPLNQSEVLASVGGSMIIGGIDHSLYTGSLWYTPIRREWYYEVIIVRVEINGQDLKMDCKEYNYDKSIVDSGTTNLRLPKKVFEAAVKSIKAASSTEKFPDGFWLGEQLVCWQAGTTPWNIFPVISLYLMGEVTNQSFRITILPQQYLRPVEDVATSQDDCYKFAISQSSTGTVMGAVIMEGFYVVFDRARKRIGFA
Sequence of BACE1 (Aβ40 in HEK293-APPswe/lon cells) (P56817 46-501): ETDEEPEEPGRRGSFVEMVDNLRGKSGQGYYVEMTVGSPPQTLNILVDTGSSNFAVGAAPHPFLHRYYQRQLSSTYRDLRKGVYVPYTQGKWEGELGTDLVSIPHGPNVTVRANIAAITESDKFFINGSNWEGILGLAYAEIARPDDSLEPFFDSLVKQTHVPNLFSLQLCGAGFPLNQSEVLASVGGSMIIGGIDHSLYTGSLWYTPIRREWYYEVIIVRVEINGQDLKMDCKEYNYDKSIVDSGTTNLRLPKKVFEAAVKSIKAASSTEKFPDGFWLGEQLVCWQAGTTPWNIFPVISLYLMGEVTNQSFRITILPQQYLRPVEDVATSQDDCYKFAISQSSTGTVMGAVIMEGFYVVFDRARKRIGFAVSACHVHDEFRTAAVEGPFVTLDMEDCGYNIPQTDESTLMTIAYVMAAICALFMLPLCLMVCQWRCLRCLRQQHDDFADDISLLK
Sequence of CYP3A4 (P08684 whole entry): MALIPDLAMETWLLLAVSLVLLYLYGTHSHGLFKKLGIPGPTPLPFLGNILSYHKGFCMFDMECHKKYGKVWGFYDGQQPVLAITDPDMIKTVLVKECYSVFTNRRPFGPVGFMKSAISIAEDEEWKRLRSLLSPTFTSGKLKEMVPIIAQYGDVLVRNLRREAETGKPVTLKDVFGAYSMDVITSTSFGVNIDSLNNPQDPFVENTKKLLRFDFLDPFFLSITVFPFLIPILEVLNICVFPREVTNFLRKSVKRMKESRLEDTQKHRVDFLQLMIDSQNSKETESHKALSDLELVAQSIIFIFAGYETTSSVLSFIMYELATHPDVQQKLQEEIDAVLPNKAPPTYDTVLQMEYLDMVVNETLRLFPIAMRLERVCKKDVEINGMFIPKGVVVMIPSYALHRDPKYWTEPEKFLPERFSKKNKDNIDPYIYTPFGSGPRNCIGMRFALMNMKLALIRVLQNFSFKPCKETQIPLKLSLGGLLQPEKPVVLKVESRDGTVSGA
Sequence of human liver Cathepsin D (P07339 65-412): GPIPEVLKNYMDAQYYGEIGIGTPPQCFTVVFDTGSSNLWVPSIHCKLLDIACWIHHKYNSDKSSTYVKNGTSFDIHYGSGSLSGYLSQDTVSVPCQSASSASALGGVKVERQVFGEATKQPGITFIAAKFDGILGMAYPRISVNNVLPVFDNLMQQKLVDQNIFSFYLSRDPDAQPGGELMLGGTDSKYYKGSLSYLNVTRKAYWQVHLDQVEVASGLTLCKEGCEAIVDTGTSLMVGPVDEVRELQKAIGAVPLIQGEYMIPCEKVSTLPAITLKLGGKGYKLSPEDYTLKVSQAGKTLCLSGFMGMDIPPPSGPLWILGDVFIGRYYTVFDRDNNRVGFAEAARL
Sequence of human liver Cathepsin D (P07339 169-412): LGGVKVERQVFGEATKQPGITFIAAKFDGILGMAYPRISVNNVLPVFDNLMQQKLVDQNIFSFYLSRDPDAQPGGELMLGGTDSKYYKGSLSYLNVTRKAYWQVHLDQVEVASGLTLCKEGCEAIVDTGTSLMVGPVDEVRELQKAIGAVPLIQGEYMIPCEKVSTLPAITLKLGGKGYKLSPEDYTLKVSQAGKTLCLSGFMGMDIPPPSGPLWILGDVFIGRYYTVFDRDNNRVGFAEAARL
Sequence of hERG (Q12809 whole entry): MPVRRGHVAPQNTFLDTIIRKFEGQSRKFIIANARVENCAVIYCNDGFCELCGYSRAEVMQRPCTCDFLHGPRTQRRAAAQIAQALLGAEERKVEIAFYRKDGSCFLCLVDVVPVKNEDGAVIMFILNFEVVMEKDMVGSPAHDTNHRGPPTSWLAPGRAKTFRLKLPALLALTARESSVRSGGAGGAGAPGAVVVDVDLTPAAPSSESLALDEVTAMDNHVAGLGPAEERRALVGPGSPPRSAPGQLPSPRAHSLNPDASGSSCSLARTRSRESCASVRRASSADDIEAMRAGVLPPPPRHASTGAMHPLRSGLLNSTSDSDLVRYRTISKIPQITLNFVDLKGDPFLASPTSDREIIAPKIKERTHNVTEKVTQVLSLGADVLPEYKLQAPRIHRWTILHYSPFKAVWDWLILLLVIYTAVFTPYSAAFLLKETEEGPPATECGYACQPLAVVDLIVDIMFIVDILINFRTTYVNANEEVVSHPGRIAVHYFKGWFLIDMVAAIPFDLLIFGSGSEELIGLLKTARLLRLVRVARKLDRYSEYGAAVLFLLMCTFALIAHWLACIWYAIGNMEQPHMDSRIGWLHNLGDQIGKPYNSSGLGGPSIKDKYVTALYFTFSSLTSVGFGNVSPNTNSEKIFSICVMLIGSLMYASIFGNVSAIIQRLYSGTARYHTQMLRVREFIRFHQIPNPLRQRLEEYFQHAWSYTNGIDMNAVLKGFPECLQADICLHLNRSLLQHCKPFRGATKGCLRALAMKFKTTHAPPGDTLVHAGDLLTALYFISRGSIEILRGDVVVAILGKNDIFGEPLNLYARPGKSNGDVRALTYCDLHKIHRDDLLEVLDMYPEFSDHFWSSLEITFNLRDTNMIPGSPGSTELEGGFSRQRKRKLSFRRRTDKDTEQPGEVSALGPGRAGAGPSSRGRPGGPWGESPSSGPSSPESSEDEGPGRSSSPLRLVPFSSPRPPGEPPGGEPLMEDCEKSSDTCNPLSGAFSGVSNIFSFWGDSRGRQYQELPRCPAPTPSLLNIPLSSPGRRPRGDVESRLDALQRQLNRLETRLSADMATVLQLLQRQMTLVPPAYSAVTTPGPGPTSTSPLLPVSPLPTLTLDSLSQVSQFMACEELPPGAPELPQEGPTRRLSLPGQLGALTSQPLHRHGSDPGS
Sequence of CYP2D6 (P10635 whole entry): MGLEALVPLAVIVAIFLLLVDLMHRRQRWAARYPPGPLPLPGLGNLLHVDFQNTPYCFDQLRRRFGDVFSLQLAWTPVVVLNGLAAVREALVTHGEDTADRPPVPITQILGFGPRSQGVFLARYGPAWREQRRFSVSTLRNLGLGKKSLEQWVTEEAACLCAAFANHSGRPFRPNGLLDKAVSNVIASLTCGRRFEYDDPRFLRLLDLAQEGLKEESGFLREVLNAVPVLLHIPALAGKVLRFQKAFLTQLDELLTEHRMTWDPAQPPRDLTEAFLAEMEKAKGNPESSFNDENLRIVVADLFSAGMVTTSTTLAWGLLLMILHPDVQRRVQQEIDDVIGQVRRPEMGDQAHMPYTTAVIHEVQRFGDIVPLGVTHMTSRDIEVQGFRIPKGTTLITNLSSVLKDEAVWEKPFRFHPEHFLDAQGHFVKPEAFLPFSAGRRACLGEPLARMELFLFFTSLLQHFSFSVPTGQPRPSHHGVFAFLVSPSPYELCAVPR

In the case of `COc1nc(N2C[C@H]3C(=O)N(C)C(=N)N[C@@]3(c3ccc(F)cc3F)C2)nc(C2CC2)c1Cl` [Example 19], in data set [1], the inhibitory constant (Ki) was 0.0068 µM. For the same molecule, the IC50 in data set [2] was 0.117 µM; on CYP2D6 (setting [3]) it was above 20 µM; on CYP2D6 (setting [4]) it was above 20 µM; at CYP3A4 (setting [5]), above 20 µM; at CYP3A4 (setting [6]) it was above 20 µM; at CYP2C9 (setting [7]), above 20 µM. Also, the IC50 on CYP2C9 (setting [8]) was above 20 µM. Moreover, the “CathD Selectivity” value on human liver Cathepsin D came out at 236. In addition, the inhibition at 5 min, 1 uM at hERG worked out at 3%. Further, the inhibition at 5 min, 10 uM at hERG turned out to be 20%.

As for `COc1nc(N2C[C@H]3C(=O)N(C)C(=N)N[C@@]3(c3ccc(F)cc3Cl)C2)nc(C)c1F` [Example 20], the inhibitory constant (Ki) in data set [1] was 0.0045 µM. Besides, the half-maximal inhibitory concentration (IC50) in data set [2] is 0.0095 µM; at CYP2D6 (setting [3]), above 20 µM; at CYP2D6 (setting [4]), above 20 µM; on CYP3A4 (setting [5]) it was 8.3 µM; on CYP3A4 (setting [6]), above 20 µM; on CYP2C9 (setting [7]) it was 8.9 µM. Further, the IC50 on CYP2C9 (setting [8]) was 7.5 µM. On human liver Cathepsin D, the “CathD Selectivity” value worked out at 106. For the same molecule, the inhibition at 5 min, 1 uM on hERG was determined as 29%. In addition, the inhibition at 5 min, 10 uM on hERG came out at 93%.

Regarding `COc1nc(N2C[C@H]3C(=O)N(C)C(=N)N[C@@]3(c3ccc(F)cc3)C2)nc(C2CC2)c1F` [Example 21], the Ki in data set [1] was 0.0048 µM. Also, the 50% inhibitory concentration (IC50) was 0.05 µM in data set [2]; 10.1 µM on CYP2D6 (setting [3]); 13.7 µM at CYP2D6 (setting [4]); above 20 µM at CYP3A4 (setting [5]); above 20 µM on CYP3A4 (setting [6]); above 20 µM at CYP2C9 (setting [7]). At CYP2C9 (setting [8]), the IC50 is above 20 µM. The “CathD Selectivity” value at human liver Cathepsin D is reported as 50. Further, at hERG, the inhibition at 5 min, 1 uM is 7%. In addition, the inhibition at 5 min, 10 uM on hERG is 73%.

For the molecule `CCc1nc(N2C[C@H]3C(=O)N(C)C(=N)N[C@@]3(c3cc(F)c(F)cc3F)C2)nc(OC)c1F` [Example 22], the inhibition constant (Ki) in data set [1] is 0.0056 µM. Further, the half-maximal inhibitory concentration (IC50) in data set [2] was 0.018 µM; at CYP2D6 (setting [3]) it was above 20 µM; at CYP2D6 (setting [4]), above 20 µM; on CYP3A4 (setting [5]), above 20 µM; at CYP3A4 (setting [6]), above 20 µM; on CYP2C9 (setting [7]), above 20 µM. For the same molecule, the 50% inhibitory concentration (IC50) at CYP2C9 (setting [8]) was around 20 µM. In addition, the “CathD Selectivity” value at human liver Cathepsin D amounted to 53. Further, the inhibition at 5 min, 1 uM at hERG amounted to 35%. Further, the inhibition at 5 min, 10 uM on hERG is 96%.

Take `COc1nc(N2C[C@H]3C(=O)N(C)C(=N)N[C@@]3(c3ccc(F)cc3)C2)nc(OC)c1F` [Example 27]: in data set [1], the inhibition constant Ki was 0.0044 µM. Moreover, the IC50 in data set [2] is 0.0615 µM; on CYP2D6 (setting [3]), around 30 µM; on CYP2D6 (setting [4]), 14.7 µM; at CYP3A4 (setting [5]), 4.2 µM; at CYP3A4 (setting [6]) it was above 30 µM; at CYP2C9 (setting [7]), above 30 µM. The IC50 on CYP2C9 (setting [8]) was above 30 µM. Besides, the “CathD Selectivity” value at human liver Cathepsin D came out at 1063. On hERG, the inhibition at 5 min, 1 uM was determined as 2%. Besides, the inhibition at 5 min, 10 uM on hERG is 51%.

Regarding `CCc1nc(N2C[C@H]3C(=O)N(C)C(=N)N[C@@]3(c3ccc(F)cc3)C2)nc(OC)c1F` [Example 30], the inhibition constant Ki in data set [1] was 0.0061 µM. The half-maximal inhibitory concentration (IC50) in data set [2] is 0.022 µM; on CYP2D6 (setting [3]), above 30 µM; on CYP2D6 (setting [4]) it was above 30 µM; at CYP3A4 (setting [5]), above 30 µM; on CYP3A4 (setting [6]) it was above 30 µM; at CYP2C9 (setting [7]), above 30 µM. Besides, on CYP2C9 (setting [8]), the IC50 is above 30 µM. Also, the “CathD Selectivity” value at human liver Cathepsin D is 163. At hERG, the inhibition at 5 min, 1 uM worked out at 2%. Also, on hERG, the inhibition at 5 min, 10 uM turned out to be 31%.

In the case of `CCc1nc(N2C[C@H]3C(=O)N(C)C(=N)N[C@@]3(c3cc(F)ccc3F)C2)nc(OC)c1F` [Example 31], in data set [1], the Ki is 0.0069 µM. Also, the half-maximal inhibitory concentration (IC50) in data set [2] is 0.031 µM; on CYP2D6 (setting [3]) it was above 20 µM; at CYP2D6 (setting [4]), above 20 µM; at CYP3A4 (setting [5]), above 20 µM; on CYP3A4 (setting [6]), above 20 µM; at CYP2C9 (setting [7]), above 20 µM. Also, at CYP2C9 (setting [8]), the concentration for half-maximal inhibition (IC50) was above 20 µM. In addition, the “CathD Selectivity” value at human liver Cathepsin D is 596. Further, the inhibition at 5 min, 1 uM on hERG was 21%. The inhibition at 5 min, 10 uM on hERG came out at 88%.
